Target: Btk (Homo sapiens, UniProt Q06187)
Assay: Btk in vitro inhibitory activity, acellular kinase assay (TR-FRET)
Format: biochemical
Protocol: Btk kinase activity is determined using a time-resolved fluorescence resonance energy transfer (TR-FRET) methodology. Measurements are performed in a reaction volume of 50 μL using 96-well assay plates. Kinase enzyme, inhibitor, ATP (at the Km for the kinase), and 1 μM peptide substrate (Biotin-AVLESEEELYSSARQ-NH2) are incubated in a reaction buffer composed of 20 mM Tris, 50 mM NaCl, MgCl2 (5-25 mM depending on the kinase), MnCl2 (0-10 mM), 1 mM DTT, 0.1 mM EDTA, 0.01% bovine serum albumin, 0.005% Tween-20, and 10% DMSO at pH 7.4 for one hour. The reaction is quenched by the addition of 1.2 equivalents of EDTA (relative to divalent cation) in 25 μL of 1× Lance buffer (Perkin-Elmer). Streptavidin-APC (Perkin-Elmer) and Eu-labeled p-Tyr100 antibody (Perkin-Elmer) in 1× Lance buffer are added in a 25 μL volume to give final concentrations of 100 nM and 2.5 nM, respectively, and the mixture is allowed to incubate for one hour. The TR-FRET signal is measured on a multimode plate reader with an excitation wavelength (λEx) of 330 nm and detection wavelengths (λEm) of 615 and 665 nm. Activity is determined by the ratio of the fluorescence at 665 nm to that at 615 nm. For each compound, enzyme activity is measured at various concentrations of compound. Negative control reactions are performed in the absence of inhibitor in replicates of six, and two no-enzyme controls were used to determine baseline fluorescence levels. Inhibition constants, Ki(app), are obtained using the program BatchKi (Kuzmic et al. (2000), Anal. Biochem. 286:45-50). IC50s are obtained according to the equation: IC50={Ki(app)/(1+[ATP]/Km^ATP)}+[E]total/2;
For all kinases, [ATP]=Km^ATP, [Btk]total=0.5 nM and [Lck]total=6 nM.

Btk, sequence (Q06187 whole entry): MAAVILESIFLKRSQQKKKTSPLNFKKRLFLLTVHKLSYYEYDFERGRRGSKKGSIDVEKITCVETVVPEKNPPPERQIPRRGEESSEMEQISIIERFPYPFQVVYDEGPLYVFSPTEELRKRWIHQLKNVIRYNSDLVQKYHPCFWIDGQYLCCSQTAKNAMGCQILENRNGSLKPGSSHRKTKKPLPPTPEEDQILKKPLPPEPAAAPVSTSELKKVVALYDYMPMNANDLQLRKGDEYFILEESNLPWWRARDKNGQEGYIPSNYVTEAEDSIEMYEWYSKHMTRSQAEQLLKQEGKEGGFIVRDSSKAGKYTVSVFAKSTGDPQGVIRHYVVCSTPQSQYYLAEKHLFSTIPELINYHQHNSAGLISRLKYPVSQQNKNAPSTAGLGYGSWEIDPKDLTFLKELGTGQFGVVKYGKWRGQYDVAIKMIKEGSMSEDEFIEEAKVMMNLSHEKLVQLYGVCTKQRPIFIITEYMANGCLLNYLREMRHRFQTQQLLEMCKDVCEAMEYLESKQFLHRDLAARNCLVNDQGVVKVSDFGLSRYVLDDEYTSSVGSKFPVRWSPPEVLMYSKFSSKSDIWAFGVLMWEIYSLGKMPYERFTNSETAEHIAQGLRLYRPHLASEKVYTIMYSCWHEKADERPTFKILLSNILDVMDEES

IC50 [nM]	Structure (SMILES)
< 100	CN(C/C=C/C(=O)N1CC[C@@H](n2nc(-c3ccc(Oc4cccc(F)c4)cc3)c3c(N)ncnc32)C1)C1CCC1 [Example 4b, (R,E)-1-(3-(4-amino-3-(4-(3-fluorophenoxy)phenyl)-1H-pyrazolo[3,4-d]pyrimidin-1-yl)pyrrolidin-1-yl)-4-(cyclobutyl(methyl)amino)but-2-en-1-one]
< 100	CN(C/C=C/C(=O)N1CC[C@@H](n2nc(-c3ccc(Oc4cccc(F)c4)cc3)c3c(N)ncnc32)C1)C1CC1 [Example 4c, (R,E)-1-(3-(4-amino-3-(4-(3-fluorophenoxy)phenyl)-1H-pyrazolo[3,4-d]pyrimidin-1-yl)pyrrolidin-1-yl)-4-(cyclopropyl(methyl)amino)but-2-en-1-one]
< 100	CCN(C/C=C/C(=O)N1CCC[C@@H](n2nc(-c3ccc(Oc4ccccc4)cc3)c3c(N)ncnc32)C1)C1CC1 [Example 5a, (R,E)-1-(3-(4-amino-3-(4-phenoxyphenyl)-1H-pyrazolo[3,4-d]pyrimidin-1-yl)piperidin-1-yl)-4-(cyclopropyl(ethyl)amino)but-2-en-1-one]
< 100	CN(C/C=C/C(=O)N1CCC(n2nc(-c3ccc(Oc4ccccc4)cc3)c3c(N)ncnc32)CC1)C1CC1 [Example 5b, (E)-1-(4-(4-amino-3-(4-phenoxyphenyl)-1H-pyrazolo[3,4-d]pyrimidin-1-yl)piperidin-1-yl)-4-(cyclopropyl(methyl)amino)but-2-en-1-one]
< 100	CN(C/C=C/C(=O)N1CC(n2nc(-c3ccc(Oc4ccccc4)cc3)c3c(N)ncnc32)C1)C1CC1 [Example 5c, (E)-1-(3-(4-amino-3-(4-phenoxyphenyl)-1H-pyrazolo[3,4-d]pyrimidin-1-yl)azetidin-1-yl)-4-(cyclopropyl(methyl)amino)but-2-en-1-one]
< 100	CN(C/C=C/C(=O)N1CC[C@@H](n2cc(-c3ccc(Oc4ccccc4)cc3)c3c(N)ncnc32)C1)C1CC1 [Example 6b, (R,E)-1-(3-(4-amino-5-(4-phenoxyphenyl)-7H-pyrrolo[2,3-d]pyrimidin-7-yl)pyrrolidin-1-yl)-4-(cyclopropyl(methyl)amino)but-2-en-1-one]
< 100	CN(C(=O)/C=C/CN(C)C1CC1)c1ccc(-n2nc(-c3ccc(Oc4ccccc4)cc3)c3c(N)ncnc32)cc1 [Example 7b, (E)-N-(4-(4-amino-3-(4-phenoxyphenyl)-1H-pyrazolo[3,4-d]pyrimidin-1-yl)phenyl)-4-(cyclopropyl(methyl)amino)-N-methylbut-2-enamide]
< 100	CN(C(=O)/C=C/CN(C)C1CCC1)c1ccc(-n2nc(-c3ccc(Oc4ccccc4)cc3)c3c(N)ncnc32)cc1 [Example 7c, (E)-N-(4-(4-amino-3-(4-phenoxyphenyl)-1H-pyrazolo[3,4-d]pyrimidin-1-yl)phenyl)-4-(cyclobutyl(methyl)amino)-N-methylbut-2-enamide]
< 100	CN(C(=O)/C=C/CN(C)C1CC1)c1cccc(-n2nc(-c3ccc(Oc4ccccc4)cc3)c3c(N)ncnc32)c1 [Example 7d, (E)-N-(3-(4-amino-3-(4-phenoxyphenyl)-1H-pyrazolo[3,4-d]pyrimidin-1-yl)phenyl)-4-(cyclopropyl(methyl)amino)-N-methylbut-2-enamide]
< 100	CN(C(=O)/C=C/CN(C)C1CCC1)c1cccc(-n2nc(-c3ccc(Oc4ccccc4)cc3)c3c(N)ncnc32)c1 [Example 7e, (E)-N-(3-(4-amino-3-(4-phenoxyphenyl)-1H-pyrazolo[3,4-d]pyrimidin-1-yl)phenyl)-4-(cyclobutyl(methyl)amino)-N-methylbut-2-enamide]
< 100	CN(C/C=C/C(=O)Nc1cccc(-n2nc(-c3ccc(Oc4ccccc4)cc3)c3c(N)ncnc32)c1)C1CC1 [Example 7f, (E)-N-(3-(4-amino-3-(4-phenoxyphenyl)-1H-pyrazolo[3,4-d]pyrimidin-1-yl)phenyl)-4-(cyclopropyl(methyl)amino)but-2-enamide]
< 100	CN(C/C=C/C(=O)Nc1cccc(-n2nc(-c3ccc(Oc4ccccc4)cc3)c3c(N)ncnc32)c1)C1CCC1 [Example 7g, (E)-N-(3-(4-amino-3-(4-phenoxyphenyl)-1H-pyrazolo[3,4-d]pyrimidin-1-yl)phenyl)-4-(cyclobutyl(methyl)amino)but-2-enamide]
< 100	CN(C(=O)/C=C/CN(C)C1CC1)c1cccc(-n2cc(-c3ccc(Oc4ccccc4)cc3)c3c(N)ncnc32)c1 [Example 8a]
